How the values were obtained:
AOX1 [1] = target: T1, AOX1 (Homo sapiens, UniProt Q06278); details: human liver cytosol
T1 sequence (Q06278 1-1338): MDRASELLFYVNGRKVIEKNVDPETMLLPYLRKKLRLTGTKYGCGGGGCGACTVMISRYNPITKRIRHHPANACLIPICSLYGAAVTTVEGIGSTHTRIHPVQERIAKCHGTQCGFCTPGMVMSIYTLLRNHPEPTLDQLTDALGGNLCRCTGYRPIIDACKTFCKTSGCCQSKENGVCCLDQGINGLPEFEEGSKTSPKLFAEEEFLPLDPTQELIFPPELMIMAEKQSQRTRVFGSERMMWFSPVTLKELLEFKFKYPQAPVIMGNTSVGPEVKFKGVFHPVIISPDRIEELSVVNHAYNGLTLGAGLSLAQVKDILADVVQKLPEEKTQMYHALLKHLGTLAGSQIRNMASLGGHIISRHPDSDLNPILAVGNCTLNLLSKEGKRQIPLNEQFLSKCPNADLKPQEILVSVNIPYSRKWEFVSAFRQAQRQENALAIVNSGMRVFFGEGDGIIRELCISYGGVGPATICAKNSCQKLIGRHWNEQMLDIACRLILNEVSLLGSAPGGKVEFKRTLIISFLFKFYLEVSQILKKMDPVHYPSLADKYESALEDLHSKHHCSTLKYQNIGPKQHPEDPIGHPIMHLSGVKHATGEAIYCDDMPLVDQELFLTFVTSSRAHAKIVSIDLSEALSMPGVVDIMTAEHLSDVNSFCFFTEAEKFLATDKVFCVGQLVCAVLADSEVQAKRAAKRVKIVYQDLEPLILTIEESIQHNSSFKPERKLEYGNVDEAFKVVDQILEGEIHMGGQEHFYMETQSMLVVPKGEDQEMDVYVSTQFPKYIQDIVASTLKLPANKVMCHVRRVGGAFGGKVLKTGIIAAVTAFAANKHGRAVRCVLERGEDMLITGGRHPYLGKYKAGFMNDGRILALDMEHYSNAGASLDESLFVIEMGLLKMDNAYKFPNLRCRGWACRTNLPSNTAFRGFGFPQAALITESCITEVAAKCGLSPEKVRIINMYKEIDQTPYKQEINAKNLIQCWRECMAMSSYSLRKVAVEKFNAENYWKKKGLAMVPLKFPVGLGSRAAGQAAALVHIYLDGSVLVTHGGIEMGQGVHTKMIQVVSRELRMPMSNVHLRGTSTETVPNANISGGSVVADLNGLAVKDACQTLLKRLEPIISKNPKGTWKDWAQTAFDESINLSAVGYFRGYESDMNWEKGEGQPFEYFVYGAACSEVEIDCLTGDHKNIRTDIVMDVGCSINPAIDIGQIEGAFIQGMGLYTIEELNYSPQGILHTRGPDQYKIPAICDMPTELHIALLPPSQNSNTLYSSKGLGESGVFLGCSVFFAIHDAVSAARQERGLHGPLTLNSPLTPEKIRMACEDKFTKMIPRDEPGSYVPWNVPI

[2] = cited from earlier work
AOX1 [3] = target: T2, AOX1 (Macaca mulatta, UniProt I0FRB2); details: monkey liver cytosol; calculated from Vmax and AOX1 level (figure 1A)
T2 sequence (I0FRB2 1-1338): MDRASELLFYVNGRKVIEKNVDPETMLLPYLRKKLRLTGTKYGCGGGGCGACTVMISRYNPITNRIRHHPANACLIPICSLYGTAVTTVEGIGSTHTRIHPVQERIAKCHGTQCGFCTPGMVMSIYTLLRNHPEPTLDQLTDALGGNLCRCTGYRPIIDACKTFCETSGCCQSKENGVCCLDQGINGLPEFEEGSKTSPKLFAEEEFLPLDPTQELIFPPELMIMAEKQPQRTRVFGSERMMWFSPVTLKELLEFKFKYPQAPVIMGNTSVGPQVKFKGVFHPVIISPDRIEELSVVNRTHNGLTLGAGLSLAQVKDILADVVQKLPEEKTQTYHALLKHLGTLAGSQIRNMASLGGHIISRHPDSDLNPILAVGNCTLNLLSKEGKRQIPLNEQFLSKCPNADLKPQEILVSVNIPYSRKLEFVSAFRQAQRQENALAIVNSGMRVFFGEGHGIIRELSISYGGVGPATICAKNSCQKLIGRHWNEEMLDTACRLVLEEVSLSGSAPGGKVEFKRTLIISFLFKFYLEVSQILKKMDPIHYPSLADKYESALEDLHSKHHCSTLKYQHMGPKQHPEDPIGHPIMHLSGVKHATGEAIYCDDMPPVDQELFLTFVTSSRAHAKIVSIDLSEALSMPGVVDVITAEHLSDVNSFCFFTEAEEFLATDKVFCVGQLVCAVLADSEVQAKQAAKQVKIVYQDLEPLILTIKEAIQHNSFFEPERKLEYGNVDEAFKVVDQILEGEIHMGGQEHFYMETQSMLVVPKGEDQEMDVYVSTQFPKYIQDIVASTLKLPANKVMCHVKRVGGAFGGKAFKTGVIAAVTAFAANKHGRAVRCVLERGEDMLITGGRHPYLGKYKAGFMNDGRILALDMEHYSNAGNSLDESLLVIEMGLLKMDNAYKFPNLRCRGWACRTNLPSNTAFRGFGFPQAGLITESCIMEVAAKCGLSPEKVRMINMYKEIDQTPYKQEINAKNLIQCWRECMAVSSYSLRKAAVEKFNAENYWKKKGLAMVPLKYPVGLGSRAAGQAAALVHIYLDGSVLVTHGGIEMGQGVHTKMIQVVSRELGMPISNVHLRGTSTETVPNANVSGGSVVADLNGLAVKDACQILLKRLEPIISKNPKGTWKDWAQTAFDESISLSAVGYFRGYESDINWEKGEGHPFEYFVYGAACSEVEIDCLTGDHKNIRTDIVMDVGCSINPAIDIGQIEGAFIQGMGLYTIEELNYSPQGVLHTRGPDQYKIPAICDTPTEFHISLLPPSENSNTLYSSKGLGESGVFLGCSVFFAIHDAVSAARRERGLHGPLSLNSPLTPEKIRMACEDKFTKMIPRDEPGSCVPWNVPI

CN(Cc1cnc2nc(N)nc(N)c2n1)c1ccc(C(=O)N[C@@H](CCC(=O)O)C(=O)O)cc1 [Methotrexate, 4-amino-N^1^0-methylpteroglutamic acid]
kcat (Vmax/[AOX1]) (AOX1 [1]; calculated from Vmax and AOX1 level (figure 1A)): 0.04 s⁻¹ | In vitro CLint AOX1 (AOX1 [1]; from specific activity and Km): 0.9 min^− 1mM^−1 | 7-hydroxymethotrexate in vivo ([2]; conventional dose levels of methotrexate in primates): not detected | Parent compound excreted as 7-hydroxymethotrexate ([2]; high dose (> 50 mg methotrexate/kg) therapy regimes): ≤ 33% | kcat (Vmax/[AOX1]) (AOX1 [3]): 0.583 s⁻¹

Reference: paper PMC4574636 (Biochemical pharmacology, 2015)
